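Step 1: Grow cells in 96-well plates. Step 2: Expose to compound for 48 hours at 5 concentrations. Step 3: Interpolate endpoints linearly; if unreached, use highest concentration. The concentration for 50% growth inhibition is given as GI50.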 Active and inactive are the calls of the source. Rule as the data show it: active = GI50 up to about 1.1 µM and inactive = higher.
Legend:
Test in all cases: DTP human tumour cell line panel, 48 h
RXF 393 = test system: RXF 393
HOP-92 = test system: HOP-92
SK-MEL-5 = test system: SK-MEL-5
IGROV-1 = test system: IGROV-1
HT-29 = test system: HT-29
SNB-75 = test system: SNB-75
UACC-62 = test system: UACC-62
SK-MEL-28 = test system: SK-MEL-28
A498 = test system: A498
OVCAR-5 = test system: OVCAR-5
MDA-N = test system: MDA-N
M14 = test system: M14
TK-10 = test system: TK-10
U-251 = test system: U-251
MOLT-4 = test system: MOLT-4
SW-620 = test system: SW-620
HCT-116 = test system: HCT-116
SNB-19 = test system: SNB-19
SK-MEL-2 = test system: SK-MEL-2
OVCAR-4 = test system: OVCAR-4

Measured: GI50

CC(=O)O[C@@H]1[C@H](OC2CCCCC2(c2ccccc2)c2ccccc2)O[N+]([O-])=CC12CCCCC2 (stereo not given in full)
inactive: RXF 393 17.8 µM | HOP-92 24.5 µM | SK-MEL-5 15 µM | IGROV-1 20.1 µM | HT-29 18.6 µM | SNB-75 15.9 µM | UACC-62 17.7 µM | SK-MEL-28 13.8 µM | A498 16.3 µM | OVCAR-5 15.8 µM | MDA-N 20.2 µM | M14 18.7 µM | TK-10 16.7 µM | U-251 17 µM | MOLT-4 52 µM | SW-620 16 µM | HCT-116 17.6 µM

O=C(NCc1cccs1)OC1CC2CCC1C2 (stereo not given)
inactive: RXF 393 > 100 µM | HOP-92 > 100 µM | SK-MEL-5 > 100 µM | IGROV-1 > 100 µM | HT-29 > 100 µM | UACC-62 > 100 µM | SK-MEL-28 > 100 µM | A498 > 100 µM | OVCAR-5 > 100 µM | MDA-N > 100 µM | M14 > 100 µM | SNB-19 > 100 µM | SK-MEL-2 > 100 µM | TK-10 > 100 µM | OVCAR-4 > 100 µM | U-251 > 100 µM | MOLT-4 > 100 µM | SW-620 > 100 µM | HCT-116 > 100 µM

COc1c(Cl)ccc(Cl)c1-c1nnc(-c2c(Cl)c(Cl)c(Cl)c(Cl)c2-c2nc3cc(C(=O)c4ccccc4)ccc3[nH]2)o1
inactive: RXF 393 20.8 µM | HOP-92 53.7 µM | SK-MEL-5 16.6 µM | IGROV-1 45.5 µM | HT-29 57.8 µM | SNB-75 33.5 µM | SK-MEL-28 47.2 µM | A498 24.8 µM | OVCAR-5 > 100 µM | MDA-N 20 µM | M14 50.9 µM | SNB-19 62.2 µM | SK-MEL-2 37.7 µM | TK-10 > 100 µM | OVCAR-4 43.5 µM | U-251 61 µM | MOLT-4 26.4 µM | SW-620 44.1 µM | HCT-116 63.1 µM

CC(C)C[C@H]1[C@@H](OCc2ccccc2)COS(=O)N1[C@H](C)c1ccccc1 (stereo not given in full)
inactive: RXF 393 13.1 µM | HOP-92 18.9 µM | SK-MEL-5 10.2 µM | IGROV-1 8.75 µM | HT-29 6.95 µM | SNB-75 15.6 µM | UACC-62 35.1 µM | SK-MEL-28 37.6 µM | A498 22.7 µM | OVCAR-5 18.9 µM | MDA-N 24.9 µM | M14 7.66 µM | SNB-19 30.3 µM | SK-MEL-2 15.7 µM | TK-10 20.6 µM | U-251 13.3 µM | MOLT-4 11.9 µM | SW-620 29.1 µM | HCT-116 4.85 µM

C[C@H]1[C@@H](c2ccccc2)O[B-](c2ccccc2)(c2ccccc2)[N+]1(C)C
inactive: RXF 393 45.5 µM | HOP-92 23.8 µM | SK-MEL-5 28.1 µM | IGROV-1 > 100 µM | HT-29 10 µM | UACC-62 52 µM | SK-MEL-28 48 µM | A498 86.1 µM | OVCAR-5 > 100 µM | MDA-N 48.8 µM | M14 27.7 µM | SNB-19 > 100 µM | SK-MEL-2 > 100 µM | TK-10 36.3 µM | OVCAR-4 > 100 µM | U-251 > 100 µM | MOLT-4 43.6 µM | SW-620 56.5 µM | HCT-116 49.7 µM

COC12c3ccccc3-c3ccccc3C1[C@H]1C(=O)OC(=O)[C@H]12 (stereo not given in full)
inactive: RXF 393 > 10 µM | HOP-92 > 10 µM | SK-MEL-5 > 10 µM | IGROV-1 > 10 µM | HT-29 > 10 µM | SNB-75 > 10 µM | SK-MEL-28 > 10 µM | A498 > 10 µM | OVCAR-5 > 10 µM | MDA-N > 10 µM | M14 > 10 µM | SNB-19 > 10 µM | SK-MEL-2 > 10 µM | TK-10 > 10 µM | OVCAR-4 > 10 µM | U-251 > 10 µM | MOLT-4 > 10 µM | SW-620 > 10 µM

O=[N+]([O-])c1nccn1CCCNc1c2ccccc2[n+]([O-])c2ccccc12
inactive: RXF 393 > 100 µM | HOP-92 27.5 µM | SK-MEL-5 > 100 µM | IGROV-1 51.9 µM | HT-29 43.6 µM | SNB-75 > 100 µM | UACC-62 > 100 µM | SK-MEL-28 > 100 µM | A498 > 100 µM | OVCAR-5 > 100 µM | MDA-N > 100 µM | M14 > 100 µM | SK-MEL-2 88.5 µM | TK-10 > 100 µM | OVCAR-4 50.2 µM | U-251 > 100 µM | MOLT-4 > 100 µM | SW-620 > 100 µM | HCT-116 > 100 µM

— ChEMBL document CHEMBL1201862, “PubChem BioAssay data set” (2004)
